From patent publication US20240124432A1, “HERBICIDAL COMPOUNDS” (SYNGENTA CROP PROTECTION AG, priority 2020, published 2024) come the findings set out here.

Common to all, as to format: in vivo
The subject of assay [1] is LOLPE. The assay can be described thus: Pre-emergence biological efficacy. The note with it: Lolium perenne, 312 h, evaluated after 13 days, read-out: damage to plant (100=total damage to plant; 0=no damage to plant). A digest of the protocol: (§1)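 Pre-emergence spray applied one day after sowing in standard soil, compound delivered from an IF50-based emulsifiable formulation diluted in 0.2% Genapol XO80. Plants then grew under glasshouse conditions for 13 days before damage was rated on a 0 (none) to 100 (total) scale.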

In assay [2] the test system is SETFA. Put plainly: Pre-emergence biological efficacy. The conditions noted are these: Setaria faberi, 312 h, evaluated after 13 days, read-out: damage to plant (100=total damage to plant; 0=no damage to plant). A digest of the protocol:
as §1

For assay [3], the system named is ECHCG. The assay can be described thus: Pre-emergence biological efficacy. The note with it: Echinochloa crus-galli, 312 h, evaluated after 13 days, read-out: damage to plant (100=total damage to plant; 0=no damage to plant). The essentials:
as §1

Assay [4] deals with EPHHL. Put plainly: Pre-emergence biological efficacy. The conditions noted are these: Euphorbia heterophylla, 312 h, evaluated after 13 days, read-out: damage to plant (100=total damage to plant; 0=no damage to plant). A digest of the protocol: as §1
In assay [5] the test system is AMAPA. The assay can be described thus: Pre-emergence biological efficacy. The conditions noted are these: Amaranthus palmeri, 312 h, evaluated after 13 days, read-out: damage to plant (100=total damage to plant; 0=no damage to plant). The essentials: as §1
Assay [6] deals with IPOHE. The assay can be described thus: Pre-emergence biological efficacy. The conditions noted are these: Ipomoea hederacea, 312 h, evaluated after 13 days, read-out: damage to plant (100=total damage to plant; 0=no damage to plant). A digest of the protocol: as §1
Assay [7] concerns LOLPE. Put plainly: Post-emergence biological efficacy. The conditions noted are these: Lolium perenne, 312 h, evaluated after 13 days, read-out: damage to plant (100=total damage to plant; 0=no damage to plant). The essentials: (§2)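 Plants grown 14 days in glasshouse, then sprayed post-emergence with compound formulated in IF50 and diluted in 0.2% Genapol XO80 to the desired dose. Damage scored after 13 days on a 0–100 scale (100 = total damage).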

In assay [8] the test system is SETFA. The assay can be described thus: Post-emergence biological efficacy. The conditions noted are these: Setaria faberi, 312 h, evaluated after 13 days, read-out: damage to plant (100=total damage to plant; 0=no damage to plant). A digest of the protocol: as §2
The next assay relates to ELEIN. Put plainly: Post-emergence biological efficacy. The note with it: 312 h, evaluated after 13 days, read-out: damage to plant (100=total damage to plant; 0=no damage to plant). The essentials:
as §2

Assay [9] concerns ECHCG. The assay can be described thus: Post-emergence biological efficacy. The note with it: Echinochloa crus-galli, 312 h, evaluated after 13 days, read-out: damage to plant (100=total damage to plant; 0=no damage to plant). A digest of the protocol:
as §2

A further assay relates to DIGSA. Put plainly: Post-emergence biological efficacy. The note with it: Digitaria sanguinalis, 312 h, evaluated after 13 days, read-out: damage to plant (100=total damage to plant; 0=no damage to plant). A digest of the protocol: as §2
The next assay concerns CHEAL. Put plainly: Post-emergence biological efficacy. The note with it: Chenopodium album, 312 h, evaluated after 13 days, read-out: damage to plant (100=total damage to plant; 0=no damage to plant). A digest of the protocol:
as §2

The test system of assay [10] is EPHHL. The assay can be described thus: Post-emergence biological efficacy. The conditions noted are these: Euphorbia heterophylla, 312 h, evaluated after 13 days, read-out: damage to plant (100=total damage to plant; 0=no damage to plant). The essentials: as §2
In assay [11] the test system is AMAPA. The assay can be described thus: Post-emergence biological efficacy. The note with it: Amaranthus palmeri, 312 h, evaluated after 13 days, read-out: damage to plant (100=total damage to plant; 0=no damage to plant). A digest of the protocol: as §2
In assay [12] the test system is IPOHE. The assay can be described thus: Post-emergence biological efficacy. The note with it: Ipomoea hederacea, 312 h, evaluated after 13 days, read-out: damage to plant (100=total damage to plant; 0=no damage to plant). The essentials: as §2

For `CCOC(=O)C1(C)CC(c2cc(-c3c(Cl)cc(C(F)(F)F)c[n+]3[O-])ccc2Cl)=NO1` (stereo not drawn) [Compound 1-663, Ethyl 3-[2-chloro-5-(3-chloro-1-oxido-5-trifluoromethyl-2-pyridyl)-phenyl]-5-methyl-4H-isoxazole-5-carboxylate], the pest or weed control at 250 g/ha came out at 50% in the assay with LOLPE [1]; 40% in the assay on SETFA [2]; 30% in the assay with ECHCG [3]; 90% in the assay with EPHHL [4]; 100% in the assay on AMAPA [5]; 90% with IPOHE [6]. Besides, the pest or weed control at 250 g/ha in the assay on LOLPE [7], in the assay with SETFA [8], in the assay on ELEIN, in the assay on ECHCG [9], in the assay with DIGSA and in the assay on CHEAL was 100% each time. In addition, the pest or weed control at 250 g/ha in the assay on EPHHL [10], in the assay on AMAPA [11] and with IPOHE [12] was 100% each time.

For `CCOC(=O)C1(C)CC(c2cc(-c3ncc(C(F)F)cc3Cl)c(F)cc2Cl)=NO1` (stereo not drawn) [Compound 1-583, Ethyl 3-[2-chloro-5-[3-chloro-5-(difluoromethyl)-2-pyridyl]-4-fluoro-phenyl]-5-methyl-4H-isoxazole-5-carboxylate], the pest or weed control at 250 g/ha worked out at 60% in the assay on LOLPE [1]; 90% in the assay on SETFA [2]; 90% with ECHCG [3]; 100% in the assay on EPHHL [4]; 100% in the assay on AMAPA [5]; 60% in the assay with IPOHE [6]. Moreover, the pest or weed control at 250 g/ha with LOLPE [7] was 100%; with SETFA [8], 100%; with ELEIN it was 90%; in the assay with ECHCG [9], 100%; in the assay on DIGSA it was 90%; in the assay with CHEAL, 100%. Besides, the pest or weed control at 250 g/ha with EPHHL [10], in the assay with AMAPA [11] and in the assay with IPOHE [12] was 100% throughout.

With `CCOC(=O)C1(C)CC(c2cc(-c3cccc(C(F)(F)F)n3)c(F)cc2Cl)=NO1` (stereo not drawn) [Compound 1-43, Ethyl 3-[2-chloro-4-fluoro-5-[6-(trifluoromethyl)-2-pyridyl]phenyl]-5-methyl-4H-isoxazole-5-carboxylate], the pest or weed control at 250 g/ha in the assay with LOLPE [1] stood at 0%; with SETFA [2], 0%; in the assay with ECHCG [3], 0%; with EPHHL [4], 0%; in the assay on AMAPA [5] it was 20%; in the assay on IPOHE [6], 0%. Further, the pest or weed control at 250 g/ha is 0% in the assay with LOLPE [7]; 90% in the assay with SETFA [8]; 70% in the assay on ELEIN; 20% in the assay on ECHCG [9]; 30% with DIGSA; 80% in the assay with CHEAL. Moreover, the results for the pest or weed control at 250 g/ha in the assay on EPHHL [10], with AMAPA [11] and in the assay with IPOHE [12] were 20%, 80% and 60%, respectively.

In the case of `CCOC(=O)C1(C)CC(c2cc(-c3cccnc3F)c(F)cc2Cl)=NO1` (stereo not drawn) [Compound 1-211, Ethyl 3-[2-chloro-4-fluoro-5-(2-fluoro-3-pyridyl)phenyl]-5-methyl-4H-isoxazole-5-carboxylate], the pest or weed control at 250 g/ha with LOLPE [1], in the assay on SETFA [2], in the assay with ECHCG [3], in the assay on EPHHL [4], in the assay with AMAPA [5] and in the assay on IPOHE [6] was 0% in each case. Further, the pest or weed control at 250 g/ha amounted to 0% in the assay on LOLPE [7]; 20% with SETFA [8]; 20% in the assay with ELEIN; 20% in the assay with ECHCG [9]; 10% in the assay with DIGSA; 90% in the assay with CHEAL. The pest or weed control at 250 g/ha in the assay with EPHHL [10] amounted to 30%; in the assay with AMAPA [11] it was 100%; in the assay with IPOHE [12], 50%.

Regarding `CCOC(=O)C1(C)CC(c2cc(-c3ncc(C(F)(F)F)nc3Cl)c(F)cc2Cl)=NO1` (stereo not drawn) [Compound 1-811, Ethyl 3-[2-chloro-5-[3-chloro-5-(trifluoromethyl)pyrazin-2-yl]-4-fluoro-phenyl]-5-methyl-4H-isoxazole-5-carboxylate], the pest or weed control at 250 g/ha in the assay on LOLPE [1] came out at 10%; in the assay with SETFA [2], 50%; with ECHCG [3], 70%; with EPHHL [4], 100%; in the assay with AMAPA [5] it was 100%; in the assay with IPOHE [6] it was 0%. Further, the pest or weed control at 250 g/ha stood at 70% in the assay on LOLPE [7]; 100% with SETFA [8]; 90% with ELEIN; 50% in the assay on ECHCG [9]; 40% in the assay with DIGSA; 60% with CHEAL. Also, the values for the pest or weed control at 250 g/ha with EPHHL [10], in the assay on AMAPA [11] and in the assay with IPOHE [12] were 80%, 80% and 70%, respectively.

For the compound `CCOC(=O)C1(C)CC(c2cc(-c3cncc(Cl)c3)c(F)cc2Cl)=NO1` (stereo not drawn) [Compound 1-271, Ethyl 3-[2-chloro-5-(5-chloro-3-pyridyl)-4-fluoro-phenyl]-5-methyl-4H-isoxazole-5-carboxylate], the pest or weed control at 250 g/ha in the assay on LOLPE [1], in the assay on SETFA [2], with ECHCG [3], with EPHHL [4], with AMAPA [5] and in the assay on IPOHE [6] was 0% throughout. Besides, the pest or weed control at 250 g/ha in the assay with LOLPE [7] came to 0%; in the assay with SETFA [8] it was 50%; in the assay with ELEIN, 20%; in the assay with ECHCG [9], 20%; in the assay with DIGSA, 20%; in the assay with CHEAL it was 70%. The pest or weed control at 250 g/ha in the assay on EPHHL [10] was 40%; with AMAPA [11], 90%; with IPOHE [12] it was 100%.

For `CCOC(=O)C1(C)CC(c2cc(-c3nc(C)cnc3C)c(F)cc2Cl)=NO1` (stereo not drawn) [Compound 1-787, Ethyl 3-[2-chloro-5-(3,6-dimethylpyrazin-2-yl)-4-fluoro-phenyl]-5-methyl-4H-isoxazole-5-carboxylate], the pest or weed control at 250 g/ha with LOLPE [1] came out at 20%; in the assay with SETFA [2], 20%; in the assay with ECHCG [3], 20%; in the assay on EPHHL [4], 10%; in the assay with AMAPA [5], 10%; with IPOHE [6], 10%. In addition, the pest or weed control at 250 g/ha with LOLPE [7] is 20%; in the assay with SETFA [8] it was 40%; in the assay with ELEIN, 60%; in the assay on ECHCG [9] it was 40%; with DIGSA, 40%; in the assay on CHEAL, 60%. Further, the figures for the pest or weed control at 250 g/ha in the assay on EPHHL [10], in the assay with AMAPA [11] and in the assay with IPOHE [12] were 40%, 50% and 50%, respectively.

`CCOC(=O)C1(C)CC(c2cc(-c3ccc(Cl)nn3)c(F)cc2Cl)=NO1` (stereo not drawn) [Compound 1-679, Ethyl 3-[2-chloro-5-(6-chloropyridazin-3-yl)-4-fluoro-phenyl]-5-methyl-4H-isoxazole-5-carboxylate]: the pest or weed control at 250 g/ha in the assay on LOLPE [1], in the assay on SETFA [2], with ECHCG [3], in the assay on EPHHL [4], in the assay with AMAPA [5] and with IPOHE [6] was 0% in each case. Moreover, the pest or weed control at 250 g/ha turned out to be 10% with LOLPE [7]; 50% with SETFA [8]; 60% in the assay on ELEIN; 50% in the assay on ECHCG [9]; 50% with DIGSA; 60% in the assay with CHEAL. In addition, the pest or weed control at 250 g/ha was 50% with EPHHL [10], 60% with AMAPA [11] and 40% in the assay with IPOHE [12].
